Test results published in paper PMC9968064, “First Synthesis of DBU-Conjugated Cationic Carbohydrate Derivatives and Investigation of Their Antibacterial and Antifungal Activity” (International Journal of Molecular Sciences, 2023).
“Also recorded” adds a separate entry of the source.

How the values were obtained:
Assay type in all cases: cell-based
[1] = system: Escherichia coli (ATCC 8739); test: MIC determination (antibacterial susceptibility test, CLSI / Hungarian Pharmacopeia); conditions: for MIC: Escherichia coli, ATCC8739, tested range 6.25–100 µg/mL; for MIC Escherichia coli (ATCC 8739): tested range 6.25–100 µg/mL
Description: (§1) The antimicrobial activity of twenty-two cationic hexopyranoside-amidinium salts (3, 10, 11, 12, 21, 22, 23, 24, 29, 30, 32, 37, 38, 45, 46, 47, 48, 49, 50, 51, 52 and 53) were compared in susceptibility tests (Table 2). The effectiveness of all compounds was tested on Staphylococcus aureus ssp. aureus (ATCC 6538), Escherichia coli (ATCC 8739) and Candida albicans (ATCC 10231). We tested the antimicrobial activity of the compounds at the concentration range of 6.25–100 µg/mL.
(§2) The detection of the antibacterial and antifungal effects of the tested compounds and the determination of the minimum inhibitory concentration (MIC) were carried out based on the method of CLSI [48] and Hungarian Pharmacopeia (chapters VIII. 2.6.12–13.).
(§3) For the antimicrobial studies, we used three human pathogens as test organisms: Candida albicans (ATCC 10231), Staphylococcus aureus subspecies aureus (ATCC 6538) and Escherichia coli (ATCC 8739).
(§4) Staphylococcus aureus subspecies aureus and Escherichia coli were cultured on tryptic soya agar (TSA) for 18–24 h at 37 °C. Candida albicans was cultured on Sabouraud dextrose agar (SDA) for 18–24 h at 37 °C. To obtain cells for suspension, we made cell suspensions from Staph. aureus, E. coli and C. albicans with the cotton swab suspension technique. The dilution of suspension was then made with 0.85% NaCl solution, absorbance being set to A600nm = 0.06. a volume of 10 μL of these suspensions contained ~4.5–6.0 × 10^4 colony forming unit (CFU) (bacteria) and ~1.5–2.0 × 10^3 CFU for yeast.
(§5) Tested agents were diluted with DMSO; the concentration of stock solutions was 4 mg/mL; and to ensure sterility, the closed sample containers were incubated at 35 °C for 1 h. The highest final concentration was 100 μg/mL.
(§6) Testing was performed in 24-well plates, and cell suspensions were prepared with 0.85% NaCl solution. Stock solutions were made from the agents with DMSO (100%). Final concentrations of used compounds were 6.25–100 µg/mL. […] After inoculation, plates were incubated at 35 °C, and results were then read visually after 18–24 h. If microbial growth could not be detected, results were read visually after 72 h. If there was no growth after 72 h, incubation was continued till the fifth day of the experiment and the results were read visually and with plate reader at 600 nm after 120 h.
(§7) The MIC value of a compound was defined as the minimal concentration that inhibits the growth of bacteria and yeasts comparing to the control. The results of the antibacterial and antifungal tests were read visually after 24, 48, 72 and 120 h. The microbial growth was measured by plate reader at 600 nm after 120 h.

[2] = system: Staphylococcus aureus ssp. aureus (ATCC 6538); test: as above; conditions: for MIC: Staphylococcus aureus, ATCC6538, tested range 6.25–100 µg/mL; for MIC Staphylococcus aureus (ATCC 6538): tested range 6.25–100 µg/mL
Description: as §1, §2, §3, §4, §5, §6, §7

[3] = system: Candida albicans (ATCC 10231); test: MIC determination (antifungal susceptibility test); conditions: Candida albicans, ATCC10231, tested range 6.25–100 µg/mL; read-out: MIC Candida albicans (ATCC 10231)
Description: as §1, §2, §3, §4, §5
as §6, with “Final concentrations of used compounds were 6.25–100 µg/mL.” left out
as §7

[4] = system: HaCaT (human keratinocyte) cell line; test: MTT viability test on HaCaT cells; conditions: 24 h; for IC50: Homo sapiens, HaCaT, 50–3.125 µg/mL
Description: The cytotoxic effect of six selected compounds (3, 10, 12, 21, 22 and 29) with promising antimicrobial activity was studied on HaCaT (human keratinocyte) cell lines. Using the MTT-test, we determined the viability of the cells (Figure 3), and the half maximal inhibitory concentration (IC50) values of the compounds are summarized in Table 4. The duration of tests was 24 h; the examined concentrations were: 50–25–12.5–6.25–3.125 µg/mL. The IC50 value of a compound was defined as the concentration that inhibits cell growth by 50% relative to the control. […], the medium containing the inhibitor was removed, and 10 μL MTT solution was added to the cells. The plates were then incubated for two hours at 37 °C. The medium from the wells was then carefully aspirated, and MTT formazan dissolved with 100 μL of DMSO aided by gentle agitation on a shaker. After 10 min at room temperature, the absorbances were read at 570 nm by an automatic plate reader. The percentage of viability reflecting the respiratory potential of the cell population in each well was expressed as (absorbance of treated cells/absorbance of control cells) × 100. IC50 values of tested agents were determined by Graphpad (Prism) semi-log line fitting (graphpad.com (8)). The MTT test was performed after treatment and removal of inhibitors followed by the addition of 10 μL of MTT solution to the cells. We tested the toxic effect of compounds 3, 10, 12, 21, 22 and 29 on HaCaT cell line. HaCaT is a spontaneously transformed, aneuploid keratinocyte, an adherent cell type derived from the epithelium of Human […] adult skin. The cell line was immortalized in 1986 under low calcium and high-temperature conditions. Cells were cultured in DMEM medium (iBiotech, Szigetszentmiklós, Hungary) containing 10% fetal bovine serum (FBS, iBiotech, Szigetszentmiklós, Hungary) and 1% antibiotic-antimycotic mix (Penicillin–Streptomycin–Neomycin).

| SMILES | MIC [1] [µg/mL] | MIC [2] [µg/mL] | MIC [3] [µg/mL] | MIC Escherichia coli (ATCC 8739) [1] [µg/mL] | MIC Staphylococcus aureus (ATCC 6538) [2] [µg/mL] | cytotoxic effect on HaCaT cells (in words) [4] | IC50 [4] [µg/mL] |
| --- | --- | --- | --- | --- | --- | --- | --- |
| O=C(O[C@H]1[C@@H](OCc2ccccc2)[C@H](O)[C@@H](C[N+]2=C3CCCCCN3CCC2)O[C@@H]1Sc1ccccc1)c1ccccc1 [Compound 52, 8-N-[phenyl 2-O-benzoyl-3-O-benzyl-6-deoxy-6-yl-1-thio-α-D-mannopyranoside]-1,8-diazabicyclo(5.4.0)undec-7-ene-chloride] | > 100 | > 100 | > 100 |  |  |  |  |
| CCS[C@H]1O[C@H](C[N+]2=C3CCCCCN3CCC2)[C@@H](O)[C@H](O)[C@H]1O [Compound 47, 8-N-[ethyl 6-deoxy-6-yl-1-thio-α-D-glucopyranoside]-1,8-diazabicyclo(5.4.0)undec-7-ene-chloride] | > 100 | > 100 | > 100 | >100 | >100 |  |  |
| O=C(O[C@H]1[C@@H](OCc2ccccc2)[C@H](OCc2ccc3ccccc3c2)[C@@H](C[N+]2=C3CCCCCN3CCC2)O[C@@H]1Sc1ccccc1)c1ccccc1 [Compound 24] | ≥ 100 | 6.25 to 50 |  |  |  |  |  |
| c1ccc(CO[C@H]2[C@@H](OCc3ccc4ccccc4c3)[C@H](OCc3ccccc3)[C@@H](C[N+]3=C4CCCCCN4CCC3)O[C@@H]2Sc2ccccc2)cc1 [Compound 21] | > 100 | 6.25 to 50 |  |  |  | significant toxic effect; also recorded: cytotoxic | 1.02 ± 0.06 |
| O=C(O[C@H]1[C@H](OC(=O)c2ccccc2)[C@@H](Sc2ccccc2)O[C@H](C[N+]2=C3CCCCCN3CCC2)[C@H]1OCc1ccc2ccccc2c1)c1ccccc1 [Compound 38] | > 100 | > 100 | > 100 | >100 | >100 |  |  |
| CCS[C@H]1O[C@H](C[N+]23CCN(CC2)CC3)[C@@H](OCc2ccc3ccccc3c2)[C@@H](OC(=O)c2ccccc2)[C@H]1OC(=O)c1ccccc1 [Compound 32] | ≥ 100 | 6.25 to 50 | > 100 |  |  |  |  |
| CCS[C@H]1O[C@H](C[N+]2=C3CCCCCN3CCC2)[C@@H](OCc2ccc3ccccc3c2)[C@H](OC(=O)c2ccccc2)[C@H]1OCc1ccccc1 [Compound 12] | > 100 | < 6.25 |  |  |  | significant toxic effect; also recorded: cytotoxic | 4.26 ± 0.16 |
| O[C@@H]1[C@H](OCc2ccccc2)[C@@H](Sc2ccccc2)O[C@H](C[N+]2=C3CCCCCN3CCC2)[C@H]1OCc1ccccc1 [Compound 49, 8-N-[phenyl 2,4-di-O-benzyl-6-deoxy-6-yl-1-thio-α-D-mannopyranoside]-1,8-diazabicyclo(5.4.0)undec-7-ene-chloride] | > 100 | > 100 | > 100 | >100 | >100 |  |  |
| O[C@H]1[C@H](OCc2ccccc2)[C@H](OCc2ccccc2)[C@@H](Sc2ccccc2)O[C@@H]1C[N+]1=C2CCCCCN2CCC1 [Compound 50, 8-N-[phenyl 2,3-di-O-benzyl-6-deoxy-6-yl-1-thio-α-D-mannopyranoside]-1,8-diazabicyclo(5.4.0)undec-7-ene-chloride] | > 100 |  |  |  |  |  |  |
| O[C@@H]1[C@H](O)[C@@H](Sc2ccccc2)O[C@H](C[N+]2=C3CCCCCN3CCC2)[C@H]1OCc1ccc2ccccc2c1 [Compound 51, 8-N-[phenyl 6-deoxy-6-yl-4-O-(2′-naphthyl)methyl-1-thio-α-D-mannopyranoside]-1,8-diazabicyclo(5.4.0)undec-7-ene-chloride] | > 100 | 6.25 to 50 |  |  |  |  |  |
| CCS[C@H]1O[C@H](C[N+]2=C3CCCCCN3CCC2)[C@@H](OCc2ccc3ccccc3c2)[C@@H](OC(=O)c2ccccc2)[C@H]1OC(=O)c1ccccc1 [Compound 30] | ≥ 100 |  |  |  |  |  |  |
| CCS[C@H]1O[C@H](C[N+]2=C3CCCCCN3CCC2)[C@@H](OCc2ccc3ccccc3c2)[C@H](O)[C@H]1O [Compound 46, 8-N-[ethyl 6-deoxy-6-yl-4-O-(2′-naphthyl)methyl-1-thio-α-D-glucopyranoside]-1,8-diazabicyclo(5.4.0)undec-7-ene-chloride] | > 100 | > 100 | > 100 | >100 | >100 |  |  |
| c1ccc(CO[C@H]2[C@H](OCc3ccccc3)[C@@H](Sc3ccccc3)O[C@H](C[N+]3=C4CCCCCN4CCC3)[C@H]2OCc2ccc3ccccc3c2)cc1 [Compound 37] | > 100 |  | > 100 |  |  |  |  |
| CCS[C@H]1O[C@H](C[N+]2=C3CCCCCN3CCC2)[C@@H](OCc2ccc3ccccc3c2)[C@H](OC(=O)c2ccccc2)[C@H]1OC(=O)c1ccccc1 [Compound 11] | > 100 | > 100 | > 100 | >100 | >100 |  |  |
| O[C@H]1[C@@H](OCc2ccccc2)[C@H](OCc2ccc3ccccc3c2)[C@@H](C[N+]2=C3CCCCCN3CCC2)O[C@@H]1Sc1ccccc1 [Compound 53, 8-N-[phenyl 3-O-benzyl-6-deoxy-6-yl-4-O-(2′-naphthyl)methyl-1-thio-α-D-mannopyranoside]-1,8-diazabicyclo(5.4.0)undec-7-ene-acetate] | > 100 | 6.25 to 50 | 6.25 to 50 |  |  |  |  |
| CCS[C@H]1O[C@H](C[N+]2=C3CCCCCN3CCC2)[C@@H](O)[C@H](OCc2ccccc2)[C@H]1OCc1ccccc1 [Compound 48, 8-N-[ethyl 2,3-di-O-benzyl-6-deoxy-6-yl-1-thio-α-D-glucopyranoside]-1,8-diazabicyclo(5.4.0)undec-7-ene-chloride] | > 100 |  |  |  |  |  |  |
| O=C(O[C@@H]1[C@H](OC(=O)c2ccccc2)[C@@H](Sc2ccccc2)O[C@H](C[N+]2=C3CCCCCN3CCC2)[C@H]1OCc1ccc2ccccc2c1)c1ccccc1 [Compound 23] | > 100 | > 100 | > 100 |  |  |  |  |
| CO[C@H]1O[C@H](C[N+]2=C3CCCCCN3CCC2)[C@@H](OCc2ccccc2)[C@H](O)[C@H]1O [Compound 45, 8-N-[methyl 6-deoxy-6-yl-4-O-benzyl-α-D-glucopyranoside]-1,8-diazabicyclo(5.4.0)undec-7-ene-chloride] | > 100 | > 100 | > 100 | >100 | >100 |  |  |
